system: SR cells (NPM-ALK, human anaplastic large cell lymphoma cells); assay: Proliferation inhibition (IC50) in SR cells, CCK8 (WST) reagent; assay type: cell-based; details: 72 h, SR cells, WST reagent, 72 hours, read-out: IC50 (half inhibitory concentration), Brigatinib series in lymphoma cell lines
Procedure: The ALK gene rearrangement positive cell line used was SR cells (NPM-ALK, human anaplastic large cell lymphoma cells). MDA-MB231 was a triple-negative breast cancer cell. Both SR cells and MDA-MB231 cells were purchased from ATCC.
The tumor cell line used was daily cultured in a 37° C. incubator containing 5% CO2. The medium was RPMI1640 supplemented with 10% FCS and Penicillin-Streptomycin.
The IC50 of the compound of the present disclosure was determined using Promega's Cell Titer Blue, Cell Titer GLO or commercially available WST reagents. The specific steps were as follows: the cells were seeded in a 96-well plate containing 100 microliters of RPMI medium containing serum at a number of 2000 cells/well. On the second day, the original drug and the compound of the present disclosure were serially diluted and added to the cells. After 72 hours of treatment with the compound of the present disclosure, the cell activity detection reagent was added to the culture medium for cell activity determination according to the instructions. The negative control was DMSO, and the positive control was the original drug, and the cells were treated in the same manner as the compound of the present disclosure. The growth inhibition of the compounds of the present disclosure on cells was plotted by Prism Graphpad software and the IC50 of the compounds of the present disclosure was counted from it.
We conducted dose-dependent experiments on the designed and synthesized compounds of the present disclosure in SR cells. […] The cells were treated with different concentrations of compounds (starting at 10 μM, 3 times dilution factor, 10 concentrations). After 72 hours, the cells were detected using CCK8 reagent (WST).

Row | IC50 [nM] | SMILES
1 | 19 ± 5.8 | COc1cc(N2CCC(N3CCN(CCCC#Cc4cccc5c4C(=O)N(C4CCC(=O)NC4=O)C5=O)CC3)CC2)ccc1Nc1ncc(Cl)c(Nc2ccccc2P(C)(C)=O)n1 (stereo not shown) [SIAIS352010, 4-(5-(4-(1-(4-((5-chloro-4-((2-(dimethylphosphono)phenyl)amino)pyrimidin-2-yl)amino)-3-methoxyphenyl)piperidin-4-yl)piperazin-1-yl)pent-1-yn-1-yl)-2-(2,6-dioxopiperidin-3-yl)isoindoline-1,3-dione]
2 | 10.5 ± 5.6 | COc1cc(N2CCC(N(C)C(=O)CCCCCSc3cccc4c3CN(C3CCC(=O)NC3=O)C4=O)CC2)ccc1Nc1ncc(Cl)c(Nc2ccccc2P(C)(C)=O)n1 (stereo not shown) [SIAIS353009, N-(1-(4-((5-chloro-4-((2-(dimethylphosphono)phenyl)amino)pyrimidin-2-yl)amino)-3-methoxyphenyl)piperidin-4-yl)-6-((2-(2,6-dioxopiperidin-3-yl)-1-oxoisoindolin-4-yl)thio)-N-methyl hexanamide]
3 | 84.5 ± 17.3 | COc1cc(N2CCC(N3CCN(C(=O)COCCOCCOCCOCCNc4cccc5c4CN(C4CCC(=O)NC4=O)C5=O)CC3)CC2)ccc1Nc1ncc(Cl)c(Nc2ccccc2P(C)(C)=O)n1 (stereo not shown) [SIAIS352056, 3-(4-((14-(4-(1-(4-((5-chloro-4-((2-(dimethylphosphono)phenyl)amino)pyrimidin-2-yl)amino)-3-methoxyphenyl)piperidin-4-yl)piperazin-1-yl)-14-oxo-3,6,9,12-tetraoxatetradecyl)amino)-1-oxoisoindolin-2-yl)piperidine-2,6-dione]
4 | 1.1 ± 0.2 | COc1cc(N2CCC(N(C)CCCCCSc3cccc4c3CN(C3CCC(=O)NC3=O)C4=O)CC2)ccc1Nc1ncc(Cl)c(Nc2ccccc2P(C)(C)=O)n1 (stereo not shown) [SIAIS353044, 3-(4-((5-((1-(4-((5-chloro-4-((2-(dimethylphosphono)phenyl)amino)pyrimidin-2-yl)amino)-3-methoxyphenyl)piperidin-4-yl)(methyl)amino)pentyl)thio)-1-oxoisoindolin-2-yl)piperidine-2,6-dione]
5 | 4.8 ± 0.1 | COc1cc(N2CCC(N(C)CCCC#Cc3cccc4c3CN(C3CCC(=O)NC3=O)C4=O)CC2)ccc1Nc1ncc(Cl)c(Nc2ccccc2P(C)(C)=O)n1 (stereo not shown) [SIAIS353050, 3-(4-(5-((1-(4-((5-chloro-4-((2-(dimethylphosphono)phenyl)amino)pyrimidin-2-yl)amino)-3-methoxyphenyl)piperidin-4-yl)(methyl)amino)pent-1-yn-1-yl)-1-oxoisoindolin-2-yl)piperidine-2,6-dione]
6 | 0.6 ± 0.4 | COc1cc(N2CCC(N3CCN(C(=O)NCCCCSc4cccc5c4CN(C4CCC(=O)NC4=O)C5=O)CC3)CC2)ccc1Nc1ncc(Cl)c(Nc2ccccc2P(C)(C)=O)n1 (stereo not shown) [SIAIS353062, 4-(1-(4-((5-chloro-4-((2-(dimethylphosphono)phenyl)amino)pyrimidin-2-yl)amino)-3-methoxyphenyl)piperidin-4-yl)-N-(4-((2-(2,6-dioxopiperidin-3-yl)-1-oxoisoindolin-4-yl)thio)butyl)piperazine-1-carboxamide]
7 | 15 ± 4.4 | COc1cc(N2CCC(N3CCN(C(=O)COCCOCCOCCNc4cccc5c4CN(C4CCC(=O)NC4=O)C5=O)CC3)CC2)ccc1Nc1ncc(Cl)c(Nc2ccccc2P(C)(C)=O)n1 (stereo not shown) [SIAIS352055, 3-(4-((2-(2-(2-(2-(4-(1-(4-((5-chloro-4-((2-(dimethylphosphono)phenyl)amino)pyrimidin-2-yl)amino)-3-methoxyphenyl)piperidin-4-yl)piperazin-1-yl)-2-oxoethoxy)ethoxy)ethoxy)ethyl)amino)-1-oxoisoindolin-2-yl)piperidine-2,6-dione]
8 | 17.1 ± 10.9 | COc1cc(N2CCC(N(C)C(=O)CSc3cccc4c3CN(C3CCC(=O)NC3=O)C4=O)CC2)ccc1Nc1ncc(Cl)c(Nc2ccccc2P(C)(C)=O)n1 (stereo not shown) [SIAIS353007, N-(1-(4-((5-chloro-4-((2-(dimethylphosphono)phenyl)amino)pyrimidin-2-yl)amino)-3-methoxyphenyl)piperidin-4-yl)-2-((2-(2,6-dioxopiperidin-3-yl)-1-oxoisoindolin-4-yl)thio)-N-methyl acetamide]

Row | SMILES | IC50 [nM]
9 | COc1cc(N2CCC(NCCCCCCSc3cccc4c3CN(C3CCC(=O)NC3=O)C4=O)CC2)ccc1Nc1ncc(Cl)c(Nc2ccccc2P(=O)(OC)OC)n1 (stereo not shown) [SIAIS293110, 3-(4-((6-((1-(4-((5-chloro-4-((2-(dimethylphosphono)phenyl)amino)pyrimidin-2-yl)amino)-3-methoxyphenyl)piperidin-4-yl)amino)hexyl)thio)-1-oxoisoindolin-2-yl)piperidine-2,6-dione] | 0.33 ± 0.11

same assay, conditions: 72 h, read-out: IC50 (half inhibitory concentration), Alectinib series in lymphoma cell lines, SR cells, WST reagent, 72 hours

Row | IC50 [nM] | SMILES
10 | 6.5 ± 4 | CCc1cc2c(cc1N1CCN(CCCCCc3cccc4c3CN(C3CCC(=O)NC3=O)C4=O)CC1)C(C)(C)c1[nH]c3cc(C#N)ccc3c1C2=O (stereo not shown) [SIAIS350081, 8-(4-(5-(2-(2,6-dioxopiperidin-3-yl)-1-oxoisoindolin-4-yl)pentyl)piperazin-1-yl)-9-ethyl-6,6-dimethyl-11-oxo-6,11-dihydro-5H-benzo[b]carbazole-3-carbonitrile]
11 | 0.1 ± 0.02 | CCc1cc2c(cc1N1CCC(N3CCN(CCCCSc4cccc5c4CN(C4CCC(=O)NC4=O)C5=O)CC3)CC1)C(C)(C)c1[nH]c3cc(C#N)ccc3c1C2=O (stereo not shown) [SIAIS293060, 8-(4-(4-(4-((2-(2,6-dioxopiperidin-3-yl)-1-oxoisoindolin-4-yl)thio)butyl)piperazin-1-yl)piperidin-1-yl)-9-ethyl-6,6-dimethyl-11-oxo-6,11-dihydro-5H-benzo[b]carbazole-3-carbonitrile]
12 | 3.2 | CCc1cc2c(cc1N1CCC(N3CCN(CCCCCC#Cc4cccc5c4CN(C4CCC(=O)NC4=O)C5=O)CC3)CC1)C(C)(C)c1[nH]c3cc(C#N)ccc3c1C2=O (stereo not shown) [SIAIS293014, 8-(4-(4-(7-(2-(2,6-dioxopiperidin-3-yl)-1-oxoisoindolin-4-yl)hept-6-yn-1-yl)piperazin-1-yl)piperidin-1-yl)-9-ethyl-6,6-dimethyl-11-oxo-6,11-dihydro-5H-benzo[b]carbazole-3-carbonitrile]
13 | 2.65 ± 1.72 | CCc1cc2c(cc1N1CCC(N3CCN(C(=O)CCCCNc4cccc5c4CN(C4CCC(=O)NC4=O)C5=O)CC3)CC1)C(C)(C)c1[nH]c3cc(C#N)ccc3c1C2=O (stereo not shown) [SIAIS262093, 8-(4-(4-(5-((2-(2,6-dioxopiperidin-3-yl)-1-oxoisoindolin-4-yl)amino)pentanoyl)piperazin-1-yl)piperidin-1-yl)-9-ethyl-6,6-dimethyl-11-oxo-6,11-dihydro-5H-benzo[b]carbazole-3-carbonitrile]
14 | 1.37 ± 0.87 | CCc1cc2c(cc1N1CCC(N3CCN(C(=O)CCCNc4cccc5c4CN(C4CCC(=O)NC4=O)C5=O)CC3)CC1)C(C)(C)c1[nH]c3cc(C#N)ccc3c1C2=O (stereo not shown) [SIAIS262092, 8-(4-(4-(4-((2-(2,6-dioxopiperidin-3-yl)-1-oxoisoindolin-4-yl)amino)butyryl)piperazin-1-yl)piperidin-1-yl)-9-ethyl-6,6-dimethyl-11-oxo-6,11-dihydro-5H-benzo[b]carbazole-3-carbonitrile]
15 | 9.1 ± 5.5 | CCc1cc2c(cc1N1CCC(N)CC1)C(C)(C)c1[nH]c3cc(C#N)ccc3c1C2=O [Alectinib derivative B (SIAIS184193), 8-(4-aminopiperidin-1-yl)-9-ethyl-6,6-dimethyl-11-oxo-6,11-dihydro-5H-benzo[b]carbazole-3-carbonitrile]
16 | 9.5 | CCc1cc2c(cc1N1CCC(N3CCN(CCCCCCCC#Cc4cccc5c4CN(C4CCC(=O)NC4=O)C5=O)CC3)CC1)C(C)(C)c1[nH]c3cc(C#N)ccc3c1C2=O (stereo not shown) [SIAIS293004, 8-(4-(4-(9-(2-(2,6-dioxopiperidin-3-yl)-1-oxoisoindolin-4-yl)non-8-yn-1-yl)piperazin-1-yl)piperidin-1-yl)-9-ethyl-6,6-dimethyl-11-oxo-6,11-dihydro-5H-benzo[b]carbazole-3-carbonitrile]
17 | 1.1 ± 0.7 | CCc1cc2c(cc1N1CCC(N3CCN(CCCCCc4cccc5c4CN(C4CCC(=O)NC4=O)C5=O)CC3)CC1)C(C)(C)c1[nH]c3cc(C#N)ccc3c1C2=O (stereo not shown) [SIAIS350083, 8-(4-(4-(5-(2-(2,6-dioxopiperidin-3-yl)-1-oxoisoindolin-4-yl)pentyl)piperazin-1-yl)piperidin-1-yl)-9-ethyl-6,6-dimethyl-11-oxo-6,11-dihydro-5H-benzo[b]carbazole-3-carbonitrile]
18 | 10.3 ± 5.1 | CCc1cc2c(cc1N1CCC(NC(=O)CCCCNc3cccc4c3CN(C3CCC(=O)NC3=O)C4=O)CC1)C(C)(C)c1[nH]c3cc(C#N)ccc3c1C2=O (stereo not shown) [SIAIS293012, N-(1-(3-cyano-9-ethyl-6,6-dimethyl-11-oxo-6,11-dihydro-5H-benzo[b]carbazol-8-yl)piperidin-4-yl)-5-((2-(2,6-dioxopiperidin-3-yl)-1-oxoisoindolin-4-yl)amino)pentanamide]
19 | 2.9 | CCc1cc2c(cc1N1CCC(N3CCN(CCCCC#Cc4cccc5c4CN(C4CCC(=O)NC4=O)C5=O)CC3)CC1)C(C)(C)c1[nH]c3cc(C#N)ccc3c1C2=O (stereo not shown) [SIAIS293002, 8-(4-(4-(6-(2-(2,6-dioxopiperidin-3-yl)-1-oxoisoindolin-4-yl)hex-5-yn-1-yl)piperazin-1-yl)piperidin-1-yl)-9-ethyl-6,6-dimethyl-11-oxo-6,11-dihydro-5H-benzo[b]carbazole-3-carbonitrile]

From patent US12390532B2, “ALK protein regulator and anti-tumor application thereof” (SHANGHAITECH UNIVERSITY, priority 2019, dated 2025)
